The values below come from ChEMBL document CHEMBL1158410, “Synthesis and evaluation of 1-(quinoliloxypropyl)-4-aryl piperazines for atypical antipsychotic effect” (Bioorg Med Chem Lett, 2009).

Series [1] concerns Mus musculus. Description: Antipsychotic activity in albino lyka mouse assessed as reversal of apomorphine-induced stereotype response at 25 mg/kg, ip administered 10 mins prior to apomorphine challenge measured after 10 to 30 mins. It is filed as functional, organism-based. On the set-up: dose 25 mg/kg.
Series [2] has as its system Mus musculus. As to the kind of experiment: Antipsychotic activity in albino lyka mouse assessed as reduction in apomorphine-induced mesh climbing response at 25 mg/kg, ip administered 10 mins prior to apomorphine challenge measured after 10 to 30 mins. On the set-up: dose 25 mg/kg. The class given is functional, organism-based.
A short description of series [3]: Lipophilicity, log P of the compound. It is filed as physicochemical. The conditions noted are these: octanol/water.
The test system of series [4] is Mus musculus. Description: Antipsychotic activity in albino lyka mouse assessed as reversal of apomorphine-induced stereotype response at 20 mg/kg, ip administered 10 mins prior to apomorphine challenge measured after 10 to 30 mins. The class given is functional, organism-based. Further details: dose 20 mg/kg.
For series [5], the system named is Mus musculus. Description: Antipsychotic activity in albino lyka mouse assessed as reduction in apomorphine-induced mesh climbing response at 20 mg/kg, ip administered 10 mins prior to apomorphine challenge measured after 10 to 30 mins. The class given is functional, organism-based. Further details: dose 20 mg/kg.
Series [6] deals with Mus musculus. As to the kind of experiment: Antipsychotic activity in albino lyka mouse assessed as reversal of apomorphine-induced stereotype response at 80 mg/kg, ip administered 10 mins prior to apomorphine challenge measured after 10 to 30 mins. It is filed as functional, organism-based. On the set-up: dose 80 mg/kg.
Series [7] deals with Mus musculus. Description: Antipsychotic activity in albino lyka mouse assessed as reduction in apomorphine-induced mesh climbing response at 80 mg/kg, ip administered 10 mins prior to apomorphine challenge measured after 10 to 30 mins. It is filed as functional, organism-based. Further details: dose 80 mg/kg.
Series [8] deals with Mus musculus. Description: Antipsychotic activity in albino lyka mouse assessed as reversal of apomorphine-induced stereotype response at 1 mg/kg, ip administered 10 mins prior to apomorphine challenge measured after 10 to 30 mins. It is filed as functional, organism-based. On the set-up: dose 1 mg/kg.
The test system of series [9] is Mus musculus. Description: Antipsychotic activity in albino lyka mouse assessed as reduction in apomorphine-induced mesh climbing response at 1 mg/kg, ip administered 10 mins prior to apomorphine challenge measured after 10 to 30 mins. It is filed as functional, organism-based. On the set-up: dose 1 mg/kg.
Series [10] relates to Mus musculus. As to the kind of experiment: Antipsychotic activity in albino lyka mouse assessed as reduction in apomorphine-induced mesh climbing response at 5 mg/kg, ip administered 10 mins prior to apomorphine challenge measured after 10 to 30 mins. It is filed as functional, organism-based. Further details: dose 5 mg/kg.
The subject of series [11] is Mus musculus. Description: Antipsychotic activity in albino lyka mouse assessed as reversal of apomorphine-induced stereotype response at 5 mg/kg, ip administered 10 mins prior to apomorphine challenge measured after 10 to 30 mins. Further details: dose 5 mg/kg. It is filed as functional, organism-based.
The test system of series [12] is Mus musculus. Description: Antipsychotic activity in albino lyka mouse assessed as reduction in apomorphine-induced mesh climbing response at 120 mg/kg, ip administered 10 mins prior to apomorphine challenge measured after 10 to 30 mins. On the set-up: dose 120 mg/kg. The class given is functional, organism-based.
The subject of series [13] is Mus musculus. As to the kind of experiment: Antipsychotic activity in albino lyka mouse assessed as reversal of apomorphine-induced stereotype response at 120 mg/kg, ip administered 10 mins prior to apomorphine challenge measured after 10 to 30 mins. The class given is functional, organism-based. Further details: dose 120 mg/kg.

Activity calls are given as the source filed them. The calls are words filed in the database; no cut-off is given here.

A word on the logP: it is a log measure of how a compound divides between an organic and an aqueous phase. A lower logP goes with a more hydrophilic compound.

`c1ccc(CN2CCN(CCCOc3ccc4ncccc4c3)CC2)cc1`: the outcome in the series on Mus musculus [1] and in the series with Mus musculus [2] was inactive. Also, the logP in series [3] stood at 3.58.

Turning to `O=C(c1ccccc1)N1CCN(CCCOc2ccc3ncccc3c2)CC1`, in the series on Mus musculus [1], the outcome was Active. In addition, the outcome with Mus musculus [2] was inactive. In series [3], this compound registered a logP of 3.02.

As to `O=C(c1ccccc1)N1CCN(CCCOc2cccc3cccnc23)CC1`, the outcome in the series on Mus musculus [4] was Active. The outcome in the series with Mus musculus [5] was inactive. Also, in series [3], the logP is 3.02.

In turn, `CN1CCN(C2=Nc3cc(Cl)ccc3Nc3ccccc32)CC1` [CLOZAPINE] gave a logP in series [3] of 3.71.

As to `Clc1ccc(CN2CCN(CCCOc3cccc4cccnc34)CC2)cc1`, the outcome in the series on Mus musculus [6] was inactive. Further, the result in the series on Mus musculus [7] was Active. In series [3], this compound registered a logP of 4.14.

For the compound `O=C(c1ccc(Cl)cc1)N1CCN(CCCOc2ccc3ncccc3c2)CC1`, the outcome with Mus musculus [8] was Active. The outcome in the series with Mus musculus [9] was inactive. This compound also returned a lipophilicity (logP) in [3] of 3.58.

In series [3], `O=C1Cc2cc(CCN3CCN(c4nsc5ccccc45)CC3)c(Cl)cc2N1` [ZIPRASIDONE] gave a logP of 4.67.

Take `O=C(c1ccc(Cl)cc1)N1CCN(CCCOc2cccc3cccnc23)CC1`: in the series on Mus musculus [10], the outcome was inactive. In series [3], the lipophilicity (logP) came to 3.58. Further, the result in the series with Mus musculus [11] was Active.

`Cc1nc2n(c(=O)c1CCN1CCC(c3noc4cc(F)ccc34)CC1)CCCC2` [RISPERIDONE] had a logP in series [3] of 2.1.

As to `c1ccc(CN2CCN(CCCOc3cccc4cccnc34)CC2)cc1`, the result in the series with Mus musculus [12] was Active. Also, in the series with Mus musculus [13], the outcome was inactive. The compound also yielded a logP in series [3] of 3.58.

In turn, `O=C(c1ccc(F)cc1)C1CCN(CCn2c(=O)[nH]c3ccccc3c2=O)CC1` [KETANSERIN] registered a logP in [3] of 2.37.

In the case of `Clc1ccc(CN2CCN(CCCOc3ccc4ncccc4c3)CC2)cc1`, the outcome with Mus musculus [10] and with Mus musculus [11] was inactive. Moreover, the logP in [3] was found to be 4.14.
